# Laboratory results published in article PMC4014702, “Synthesis, In Vitro and In Vivo Evaluation of the N-ethoxycarbonylmorpholine Ester of Diclofenac as a Prodrug” (Pharmaceuticals, 2014).
# Counter-ions that a name gives are not always drawn.
# Key:
# [1] = system: stomach (mucosal damage); assay: In vivo ulcerogenicity study in rats; design: species or system male Sprauge-Dawley rats; conditions: for number of lesions / ulcer score: single equimolar dose (diclofenac sodium 100 mg/kg, prodrug 140 mg/kg); for number of lesions: average, for the prodrug punctiform lesions; for ulcer score: sacrificed after 17 h
# Procedure: The ulceroginicity of diclofenac sodium and its prepared prodrug 2 were evaluated. Three groups (six animals each) of male Sprauge-Dawley rats (150–200 gm) were fasted for 8 h prior to administration of single equimolar doses of diclofenac sodium (100 mg/kg), its prodrug (140 mg/kg), or vehicle. Free access to food and water were provided throughout the experiment. […] The stomach of the rats was dissected out of the body, and stomach content was emptied and washed with saline. The stomach was then opened and wiped with a clean swap dipped in saline. The degree of mucosal damage was assessed using a 4× binocular magnifier. The severity of the damage was assessed according to a scoring system where the presence of <5 punctiforms with no ulcers was given the score of zero. A punctiform was defined as a lesion of less than 1 mm. If >5 punctiforms were present with no ulcer, a score of 1 was given. If 1–5 small ulcers (1–2 mm in diameter) were observed, a score of 2 was given. If >5 small ulcers or one large ulcer (>2 mm in diameter) was present, a score of […] was given. If >1 large ulcer was observed, a score of 4 was given. The scores were averaged and the mean score was tabulated as ulcerogenicity index for the drugs under investigation.
# [2] = Hydrolysis kinetics in aqueous buffer solution; assay type: physicochemical; conditions: about 37 °C
# Procedure: (§1) The HPLC analysis was performed using LaChrom Merck Hitachi system that consists of a D-7000 interface, L-7200 diode array detector, pump L-7150 and D-7000HSM software (Schaumburg, IL, USA). The UV detector was set at 280 nm wave length. The HPLC column was an Agela unisol-C18, 5 micron 4.6 × 150. Mobile phase was 80% methanol, 20% water. To each litre, 2 mL acetic acid were added. The mobile phase was pumped at flow rate 1.5 mL/min. The retention times were: 5.17 min 6.19 min and 7.15 min for 2-hydroxyethyldiclofenac, diclofenac sodium and the morpholine prodrug, respectively (Figure 2). The analytical method was fully validated.
# The prodrug under investigation was incubated in 0.1 N HCl (pH 1.0) and phosphate buffer (pH 7.4). The formed solutions were kept in a shaking water bath at about 37 °C for eight h. At appropriate intervals, samples (100 µL) were analyzed using the HPLC method described earlier.
# [3] = Hydrolysis kinetics in human plasma; assay type: in vitro ADME; conditions: 37 ± 0.3 °C
# Procedure: as §1
# The prodrug under investigations was incubated in human plasma using a shaking water bath, which was set at 37 ± 0.3 °C. An amount of 25 µL of 1.0 mg/mL stock solution of the prodrug under investigation was added to 5 mL of the incubated plasma. At appropriate time points, samples of 100 μL were withdrawn and deproteinized by adding equal volumes of acetonitrile. The formed mixture was mixed on a vortex then centrifuge at 2,500 rpm for 10 min. The clear supernatant was analyzed using the HPLC method.
half-life ([2]; pH 1 (0.1 N HCl)),half-life ([2]; pH 7.4 (phosphate buffer)),half-life at 5 µg/mL [3],SMILES,"lesions larger than 2 mm ([1]; single dose diclofenac sodium 100 mg/kg, 17 h)",number of lesions ([1]; 17 h),ulcer score [1]
,,,"O=C(O)Cc1ccccc1Nc1c(Cl)cccc1Cl [Compound 1, 2-[(2,6-dichloro-phenyl])amino]benzeneacetic acid sodium salt]",six,82,four
8 h,47 h,0.35 h,O=C(Cc1ccccc1Nc1c(Cl)cccc1Cl)OCCOC(=O)N1CCOCC1 [Compound 2],,less than five,zero
